In experiment [1] the target is T1, S. aureus-derived recombinant SrtA (Staphylococcus aureus, UniProt Q2FV99).
T1 construct: made in house; host or cells: E. coli
The experiment is described as follows: biochemical.

The target of experiment [2] is isocitrate lyase (ICL) derived from C. albicans. The arrangement: method as in PMID 31167388. Particulars: previously reported; cited from earlier work.
Experiment [3] addresses T2, recombinant ICL from C. albicans (Candida albicans, UniProt Q9P8Q7).
T2 construct: made in house
Nature of the experiment: ICL inhibition assay. The settings on record: 37 °C, 30 min. It is filed as biochemical. The protocol:
The recombinant ICL from C. albicans was prepared and the inhibitory activity of the test compounds against ICL was determined by previously documented procedures. […] The increase in intensity of absorbance resulting from the formation of glyoxylate phenylhydrazone was observed using an UVmini-1240 spectrophotometer (SHIMADZU, Tokyo, Japan) at a wavelength of 324 nm. A known ICL inhibitor, 3-nitropropionic acid, was used as a reference control.

For experiment [4], the system named is Bacillus cereus. The arrangement: method as in PMID 25001296. The settings on record: cited from earlier work.
Experiment [5] relates to Staphylococcus epidermidis. On the set-up: method as in PMID 25001296. The settings on record: cited from earlier work.

Positions of bridges follow the written chain, without caps; N, C: chain ends. Non-standard residues stand in square brackets, D forms with d. Residues, ends and D or L forms follow the SMILES beside them. NMeF = CN[C@@H](Cc1ccccc1)C(=O)O

T1 sequence (Q2FV99 whole entry): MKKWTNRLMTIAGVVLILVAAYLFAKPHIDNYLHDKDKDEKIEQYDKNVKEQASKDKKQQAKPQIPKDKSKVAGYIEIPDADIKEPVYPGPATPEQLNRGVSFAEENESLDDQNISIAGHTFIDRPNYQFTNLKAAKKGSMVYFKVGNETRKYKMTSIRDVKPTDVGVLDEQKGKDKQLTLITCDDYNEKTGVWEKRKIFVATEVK
T2 sequence (Q9P8Q7 whole entry): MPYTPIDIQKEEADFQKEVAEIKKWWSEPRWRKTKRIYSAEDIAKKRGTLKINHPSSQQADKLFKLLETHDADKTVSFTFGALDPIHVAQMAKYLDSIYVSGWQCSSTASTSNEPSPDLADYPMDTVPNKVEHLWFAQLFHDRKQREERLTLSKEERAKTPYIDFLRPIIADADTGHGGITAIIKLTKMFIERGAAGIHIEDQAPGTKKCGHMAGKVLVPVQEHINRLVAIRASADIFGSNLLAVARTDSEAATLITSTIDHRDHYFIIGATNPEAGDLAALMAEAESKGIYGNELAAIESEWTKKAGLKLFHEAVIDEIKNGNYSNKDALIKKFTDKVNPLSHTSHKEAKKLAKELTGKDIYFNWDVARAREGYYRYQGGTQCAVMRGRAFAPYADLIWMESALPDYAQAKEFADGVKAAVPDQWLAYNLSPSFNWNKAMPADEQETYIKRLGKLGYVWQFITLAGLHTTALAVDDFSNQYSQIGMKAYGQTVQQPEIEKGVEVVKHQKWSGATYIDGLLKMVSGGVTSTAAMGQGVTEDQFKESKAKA

On to `CC(C)C[C@@H]1NC(=O)[C@@H]2CCCN2C(=O)[C@H](Cc2ccc(O)cc2)NC(=O)[C@H](Cc2ccccc2)N(C)C(=O)[C@H](C)NC1=O` [Compound 1, JG002CPA] (cyclo(A[NMeF]YPL)), for which the IC50 (in general, the midpoint of a concentration-inhibition curve) in experiment [1] amounted to 70 µM. With `CC(C)[C@@H]1NC(=O)[C@H](Cc2ccccc2)NC1=O` [cyclo(L-Phe-L-Val)], in experiment [2], the IC50 was 110 µM.

Regarding `CC(=O)N[C@@H]1C(=O)N[C@H](C(C)C)C(=O)N2CCC[C@H]2C(=O)N[C@@H](Cc2ccc(O)cc2)C(=O)N(C)[C@@H](Cc2ccccc2)C(=O)N[C@@H](C)C(=O)O[C@@H]1C` [Compound 3, FJ120DPA] (Ac-T[dV]PY[NMeF]A; ester 1-C), in experiment [1], the IC50 amounted to 132 µM. On to `CC(C)[C@@H]1NC(=O)[C@@H]2CCCN2C(=O)[C@H](Cc2ccc(O)cc2)NC(=O)[C@H](Cc2ccccc2)N(C)C(=O)[C@H](C)NC1=O` [Compound 2, JG002CPB] (cyclo(A[NMeF]YPV)), for which the IC50 in experiment [1] stood at 53.1 µM; in experiment [3], 117 µM.

Consider `CC(=O)N[C@H](C(=O)N[C@@H](C(=O)N1CCC[C@H]1C(=O)N[C@@H](Cc1ccc(O)cc1)C(=O)N(C)[C@@H](Cc1ccccc1)C(=O)N[C@@H](C)C(=O)O)C(C)C)[C@@H](C)O` [Compound 4, FJ120DPB] (Ac-T[dV]PY[NMeF]A-OH), for which the IC50 in experiment [1] is 77 µM. On to `O=C(O)CC[N+](=O)[O-]` [3-Nitropropionic acid], for which, in experiment [3], the IC50 amounted to 18.5 µM.

With asperpeptide A, the MIC in experiment [4] and in experiment [5] was 12.5 µM in each case. Consider `COc1ccc2cc3[n+](cc2c1OC)CCc1cc2c(cc1-3)OCO2` [Berberine chloride], for which the IC50 in experiment [1] came out at 104 µM.

These data come from paper PMC6780696, “New Peptides from The Marine-Derived Fungi Aspergillus allahabadii and Aspergillus ochraceopetaliformis” (Marine Drugs, 2019).
